“And” between values parts separate entries of the source, which are not always exact repeats. Identical values can stand only once.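 Cultured in 96-well plates, cells were exposed to test compound for 48 hours across five concentrations. GI50: concentration for 50% inhibition of growth. The concentration for full growth arrest is given as TGI.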
Experiments:
Test in all cases: NCI anticancer screen, dose series, 48 h
RXF 393 renal = test system: RXF 393 renal
UACC-257 melanoma = test system: UACC-257 melanoma
OVCAR-5 ovarian = test system: OVCAR-5 ovarian
A498 renal = test system: A498 renal
SNB-19 CNS = test system: SNB-19 CNS
SK-OV-3 ovarian = test system: SK-OV-3 ovarian
MDA-MB-231 breast = test system: MDA-MB-231 breast
NCI/ADR-RES ovarian = test system: NCI/ADR-RES ovarian
OVCAR-8 ovarian = test system: OVCAR-8 ovarian
A549 NSCLC = test system: A549 NSCLC

Structure (SMILES)	GI50 (RXF 393 renal)	TGI (RXF 393 renal)	GI50 (UACC-257 melanoma)	TGI (UACC-257 melanoma)	GI50 (OVCAR-5 ovarian)	TGI (OVCAR-5 ovarian)	GI50 (A498 renal)	TGI (A498 renal)	GI50 (SNB-19 CNS)	TGI (SNB-19 CNS)	GI50 (SK-OV-3 ovarian)	TGI (SK-OV-3 ovarian)	GI50 (MDA-MB-231 breast)	TGI (MDA-MB-231 breast)	GI50 (NCI/ADR-RES ovarian)	TGI (NCI/ADR-RES ovarian)	GI50 (OVCAR-8 ovarian)	TGI (OVCAR-8 ovarian)	GI50 (A549 NSCLC)	TGI (A549 NSCLC)
Oc1[nH]c2ccccc2c1C=Nc1ccc(-n2cncn2)cc1	> 14.5 µM	> 25 µM	> 25 µM	> 25 µM	> 25 µM	> 25 µM	> 16.7 µM	> 25 µM	> 25 µM	> 25 µM	> 15.7 µM	> 25 µM	> 25 µM	> 25 µM	15.7 µM	> 25 µM	13.9 µM	> 25 µM	> 18.5 µM	> 25 µM
CC12O[C@H](C[C@@H](OC(=O)CCC(=O)O)[C@H]1O)n1c3ccccc3c3c4c(c5c6ccccc6n2c5c31)C(=O)NC4=O	0.598 µM	4.16 µM	1.52 µM	10.6 µM	7.87 µM	> 50 µM	0.168 µM	1.15 µM	3.62 µM	38.8 µM	0.323 µM	3.44 µM	6.3 µM	16.2 µM	6.24 µM	40.8 µM	2.65 µM	> 50 µM	1.55 µM	> 50 µM
COc1ccc2c(c1)nnc1c3cccnc3[nH]c21	0.66 µM and 1.76 µM	2.15 µM and 12.6 µM	7.49 µM and 1.91 µM	41 µM and 10.7 µM	5.72 µM and 35.4 µM	20.2 µM and > 100 µM	8 µM and 2.48 µM	19.2 µM and 21.3 µM	7.61 µM and 9.99 µM	18.7 µM and 33.4 µM	2.69 µM and 2.38 µM	13.5 µM and 12.5 µM	1.42 µM and 1.56 µM	11.4 µM and 6.1 µM	1.79 µM and 1.92 µM	12.5 µM and 18.9 µM	0.619 µM and 0.376 µM		7.9 µM and 3.53 µM	42.5 µM and 15.4 µM
COc1ccc(-c2[nH]ncc2Nc2cc(OC)c(OC)c(OC)c2)cc1	1.92 µM	> 22.3 µM	34 µM	> 100 µM	5.26 µM	> 100 µM	2.98 µM	> 57.4 µM	4.86 µM	> 100 µM	3.09 µM	> 77.8 µM	3.34 µM	> 100 µM	1.86 µM	25 µM	6.36 µM	> 100 µM	3.39 µM	> 100 µM
COc1cnccc1Nc1nc(-c2nn(Cc3c(F)cc(OCCO)cc3F)c3ccccc23)ncc1OC	3.85 µM	17.1 µM	4.38 µM	17 µM	5.13 µM	24.5 µM	12.7 µM	50.2 µM	2.23 µM	10.5 µM	19.4 µM	48 µM	1.53 µM	4.96 µM	2.97 µM	16.5 µM	2.03 µM	5.82 µM	2.93 µM	10.3 µM
CC1=C[C@@H]2c3c(c(O)c(O)c4oc5cc(O)cc(O)c5c(=O)c34)[C@@H](c3cc(O)c(O)c4oc5cc(O)cc(O)c5c(=O)c34)[C@@H]2C(C)(C)C1	5.69 µM	17.3 µM	9.65 µM	24.5 µM	7.83 µM	18.2 µM	9.07 µM	21 µM	2.76 µM	13 µM	3.77 µM	14.6 µM	4.19 µM	20.5 µM	10.2 µM	27.1 µM	4.31 µM	18.8 µM	4.12 µM	17.6 µM
CCS(=O)(=O)c1ccc(OC)c(Nc2ncc(-c3cccc(F)c3)o2)c1	> 20.8 µM	> 25 µM	> 25 µM	> 25 µM	> 25 µM	> 25 µM	0.34 µM	> 25 µM	> 25 µM	> 25 µM	> 25 µM	> 25 µM	> 25 µM	> 25 µM	> 25 µM	> 25 µM	> 25 µM	> 25 µM	> 25 µM	> 25 µM
COc1ccc2c(c1)/C(=N/OC(C)=O)c1c-2c(OC)nc2ccccc12	77.7 µM	> 100 µM	> 100 µM	> 100 µM	> 100 µM	> 100 µM	> 100 µM	> 100 µM	> 100 µM	> 100 µM	48.1 µM	> 100 µM	35 µM	> 100 µM	> 100 µM	> 100 µM	> 100 µM	> 100 µM	> 100 µM	> 100 µM
CC(C)(C)[Si](C)(C)OC1[C@@H](COC(=O)NC(=O)CCl)O[C@@H](n2cnc3c(N)ncnc32)[C@H]1O[Si](C)(C)C(C)(C)C (some centres not stated)	2.33 µM	7.99 µM	6.98 µM	13.8 µM	3.11 µM	9.55 µM	6.58 µM	13.1 µM	7.61 µM	14.7 µM	2.92 µM	5.95 µM	1.12 µM	2.76 µM	5.44 µM	12.2 µM	1.42 µM	4.45 µM	4.94 µM	11.9 µM
O=C1/C(=C/c2ccc([N+](=O)[O-])o2)Oc2ccc(Cl)cc21	1.65 µM	3.6 µM	1.85 µM	4.12 µM	2.63 µM	7.5 µM	14.4 µM	34 µM	3.94 µM	16.7 µM	13 µM	47.2 µM	1.77 µM	4.12 µM	3.36 µM	> 100 µM	2.06 µM	> 22.1 µM	6.45 µM	59.1 µM
O=C1/C(=C/c2ccc(C(F)(F)F)cc2)COc2ccc(O)c(O)c21	1.6 µM	3.05 µM	1.58 µM	3.46 µM	1.6 µM	3.09 µM	2.11 µM	4.16 µM	1.48 µM	2.87 µM	2.89 µM	10.8 µM	1.18 µM	2.65 µM	1.8 µM	6.59 µM	0.846 µM	2.96 µM	1.51 µM	3.15 µM
COc1ccc2c(c1)-c1c(c3cc(OC)ccc3n(CCN(C)C)c1=O)C2=O	1.59 µM	7.23 µM	1.3 µM	4.78 µM	3.14 µM	12.7 µM	1.36 µM	6.48 µM	0.812 µM	7.18 µM	1.73 µM	8.77 µM	1.54 µM	8.07 µM	0.659 µM	7.41 µM	0.31 µM	5.59 µM	0.388 µM	2.97 µM
CCOC(=O)/C=C1/SC(=Nc2ccc(C#N)cc2)N(Cc2ccco2)C1=O	1.48 µM	2.96 µM	5.34 µM	18.4 µM	3.36 µM	16.1 µM	14.8 µM	30 µM	3.83 µM	13.8 µM	14.1 µM	29.9 µM	4.29 µM	23.5 µM	3.42 µM	90.8 µM	2.83 µM	7.94 µM	10.4 µM	26.1 µM
CN(C)c1ccc2[nH]c3c(C(N)=O)cc(=O)c(=O)c=3oc2c1	1.89 µM	7.24 µM	1.77 µM	6.18 µM	3.36 µM	17.2 µM	2.68 µM	9.5 µM	2.34 µM	9.81 µM	3.54 µM	> 100 µM	1.7 µM	8.67 µM	1.81 µM	8.39 µM	1.05 µM	> 100 µM	3.19 µM	> 100 µM
N=C(CC(=O)Nc1ccccn1)c1ccccc1		> 100 µM		> 100 µM		> 100 µM		> 100 µM		> 100 µM		> 100 µM		> 100 µM		> 100 µM		> 100 µM		> 100 µM
COC(=O)CC1=C(C)/C(=C/c2[nH]c(-c3ccc[nH]3)cc2OC)N=C1C	0.0611 µM	1.08 µM	0.282 µM	1.12 µM	0.195 µM	6.06 µM	1.02 µM	5.39 µM	1.35 µM	14.2 µM	0.581 µM	4.19 µM	0.0681 µM	0.994 µM	0.324 µM	2.34 µM	0.236 µM	1.02 µM	0.248 µM	3.69 µM
CNC(=O)c1cc(Oc2ccc(NC(=O)Nc3cc(C(C)(C)C)nn3-c3ccc4ncccc4c3)c(F)c2)ccn1	0.821 µM and 0.647 µM	2.61 µM and 2.05 µM	0.477 µM and 0.44 µM	5.56 µM and 3.72 µM	2.1 µM and 3.34 µM		1.26 µM and 0.307 µM	3.21 µM and 2.42 µM	3.1 µM and 3.09 µM	8.87 µM and 7.98 µM	1.59 µM and 2.34 µM	6.59 µM and 7.8 µM	0.827 µM and 0.963 µM	7.12 µM and 5.78 µM	2.65 µM and 3.36 µM	8.39 µM and 58.4 µM	2.24 µM and 1.99 µM	7.82 µM and 6.84 µM	1.83 µM and 1.8 µM	7.72 µM and 6.5 µM
O=C1Cc2cc(CCN3CCNCC3)c(Cl)cc2N1	6.89 µM	> 100 µM	6.52 µM	> 100 µM	79.2 µM	> 100 µM	2.85 µM	> 100 µM	23.7 µM	> 100 µM	> 100 µM	> 100 µM	3.9 µM	> 100 µM	5.11 µM	> 100 µM	36.8 µM	> 100 µM	6.85 µM	> 100 µM
CCC(c1ccccc1)c1cc(C(C)(C)C)cc(C(C)(C)C)c1O (configuration not stated)		34.2 µM		28.5 µM		26.6 µM		33.9 µM		32.7 µM		28.1 µM		31.9 µM		28.7 µM		31.1 µM		29.8 µM
CC(=O)c1c(C)c2cnc(Nc3ccc(N4CCNCC4)cn3)nc2n(C2CCCC2)c1=O	2.87 µM	17.2 µM	5.51 µM	20.9 µM	8.59 µM	22.3 µM	4.69 µM	19.5 µM	11.7 µM	25.4 µM	9.73 µM	22.1 µM	9.84 µM	24.9 µM	16.7 µM	33.8 µM	12.9 µM	28.7 µM	3.69 µM	19.2 µM
Cc1cc(N2CCOCC2)nc(NCc2cc(Nc3ccnc4cc(Cl)ccc34)ccc2F)n1	1.63 µM	3.37 µM	1.85 µM	3.54 µM	1.62 µM	3.16 µM	0.894 µM	2.25 µM	1.65 µM	3.45 µM	1.92 µM	3.48 µM	1.88 µM	3.63 µM	1.73 µM	3.31 µM	1.86 µM	3.58 µM	1.87 µM	3.6 µM
C=C(C)C(=O)Nc1ccc(-c2c(-c3ccc(Oc4nccc(C)n4)c(F)c3)c3c(N)ncnc3n2C)cc1	0.0946 µM	0.984 µM	9.27 µM	23.6 µM	4.43 µM	20.9 µM	1.72 µM	9.88 µM	10.7 µM	> 100 µM	14.7 µM	69.2 µM	3.57 µM	22.2 µM	10.1 µM	31 µM	4.49 µM	19.2 µM	3.6 µM	18.5 µM
COc1cc(-c2ccc[nH]2)[nH]c1/C=C1\N=C(C)C(CC(=O)OCC(C)(C)C)=C1C	0.258 µM	1.21 µM	0.339 µM	1.52 µM	0.501 µM	2.31 µM	0.163 µM	0.867 µM	0.468 µM	2.51 µM	0.442 µM	2.02 µM	0.104 µM	1.53 µM	0.357 µM	1.46 µM	0.321 µM	1.44 µM	0.244 µM	1.24 µM
COC(=O)c1cc(-c2ccc(S(C)(=O)=O)cc2)[nH]c1N/N=C/c1c(Cl)cccc1Cl	1.04 µM	> 100 µM	2.82 µM	> 100 µM	4.08 µM	> 100 µM	0.334 µM	4.75 µM	0.516 µM	> 100 µM	0.852 µM	28.6 µM	1.73 µM	> 100 µM	0.343 µM	11.5 µM	1.27 µM	98.1 µM	0.656 µM	> 39.4 µM
CCN1C(=O)N(CC)C2C1N=C(SC)N2/N=C/C=C/c1ccccc1OC (configuration not stated)	0.376 µM	35.3 µM	> 32.9 µM	> 58 µM	0.63 µM	> 54.4 µM	0.285 µM	1.9 µM	0.492 µM	> 39 µM	0.743 µM	> 59.5 µM	0.348 µM	10.8 µM	0.329 µM		0.438 µM	> 45 µM	0.469 µM	> 47.8 µM

Source: PubChem BioAssay (NCI)
